Measured values: US8691753B2 (priority 2009, dated 2014)
Like-named read-outs stand apart in the source and are kept apart here.

What was measured:
Format in all cases: biochemical
[1] = target: MMP-14h (Homo sapiens (Human), UniProt P50281); assay: Inhibition constant (Ki) on MMP-14h; conditions: human MMP-14
Source text: (§1) The inhibition constant Ki of these compounds has been determined according to the protocol described by Devel et al, 2006, J. Biol. Chem. (7).
(§2) In this table I and also in table II below, “h” corresponds to human. All of the compounds have therefore been evaluated on human MMPs.

[2] = target: MMP-10h (Homo sapiens (Human), UniProt P09238); assay: Inhibition constant (Ki) on MMP-10h; conditions: human MMP-10
Chain of MMP-10h (P09238 99-476): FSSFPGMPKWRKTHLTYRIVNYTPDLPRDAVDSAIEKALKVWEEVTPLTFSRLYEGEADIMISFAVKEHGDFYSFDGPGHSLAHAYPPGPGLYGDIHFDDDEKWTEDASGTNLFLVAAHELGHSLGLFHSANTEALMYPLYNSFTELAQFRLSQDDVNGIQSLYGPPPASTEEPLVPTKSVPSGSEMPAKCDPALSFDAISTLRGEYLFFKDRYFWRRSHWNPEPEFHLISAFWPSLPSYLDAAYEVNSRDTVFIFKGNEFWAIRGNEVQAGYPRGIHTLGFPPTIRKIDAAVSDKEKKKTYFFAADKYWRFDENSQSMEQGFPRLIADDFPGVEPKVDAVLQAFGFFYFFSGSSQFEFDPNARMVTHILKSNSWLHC

[3] = target: MMP-12h (Homo sapiens (Human), UniProt P39900); assay: Inhibition constant (Ki) on MMP-12h; conditions: human MMP-12
Chain of MMP-12h (P39900 106-470): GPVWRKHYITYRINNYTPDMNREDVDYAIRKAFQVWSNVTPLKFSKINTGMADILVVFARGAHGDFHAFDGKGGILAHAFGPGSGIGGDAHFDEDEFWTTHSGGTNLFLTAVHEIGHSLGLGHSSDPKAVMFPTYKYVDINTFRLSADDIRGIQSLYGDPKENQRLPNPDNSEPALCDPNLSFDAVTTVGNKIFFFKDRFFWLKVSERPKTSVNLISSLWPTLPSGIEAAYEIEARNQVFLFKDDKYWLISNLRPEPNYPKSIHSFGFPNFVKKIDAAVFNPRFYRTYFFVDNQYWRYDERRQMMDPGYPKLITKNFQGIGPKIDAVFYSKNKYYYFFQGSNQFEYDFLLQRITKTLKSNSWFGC

[4] = target: MMP-2h (Homo sapiens (Human), UniProt P08253); assay: Inhibition constant (Ki) on MMP-2h; conditions: human MMP-2
Chain of MMP-2h (P08253 110-660): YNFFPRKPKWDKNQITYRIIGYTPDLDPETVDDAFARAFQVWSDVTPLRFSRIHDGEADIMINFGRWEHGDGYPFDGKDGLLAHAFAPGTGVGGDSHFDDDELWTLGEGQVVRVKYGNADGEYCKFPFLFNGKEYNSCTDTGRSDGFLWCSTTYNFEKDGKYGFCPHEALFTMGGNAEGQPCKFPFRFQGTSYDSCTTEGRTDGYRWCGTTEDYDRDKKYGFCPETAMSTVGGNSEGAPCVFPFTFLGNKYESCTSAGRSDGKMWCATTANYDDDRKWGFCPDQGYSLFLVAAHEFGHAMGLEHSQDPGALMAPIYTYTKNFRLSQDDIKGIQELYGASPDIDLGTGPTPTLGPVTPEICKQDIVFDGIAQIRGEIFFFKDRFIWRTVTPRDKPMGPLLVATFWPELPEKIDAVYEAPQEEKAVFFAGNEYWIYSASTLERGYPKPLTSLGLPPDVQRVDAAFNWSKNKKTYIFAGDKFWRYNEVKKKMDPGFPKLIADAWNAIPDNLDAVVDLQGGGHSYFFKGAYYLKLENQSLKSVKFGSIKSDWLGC
Source text: as §1, §2

[5] = target: MMP-3h (Homo sapiens (Human), UniProt P08254); assay: Inhibition constant (Ki) on MMP-3h; conditions: human MMP-3
Chain of MMP-3h (P08254 100-477): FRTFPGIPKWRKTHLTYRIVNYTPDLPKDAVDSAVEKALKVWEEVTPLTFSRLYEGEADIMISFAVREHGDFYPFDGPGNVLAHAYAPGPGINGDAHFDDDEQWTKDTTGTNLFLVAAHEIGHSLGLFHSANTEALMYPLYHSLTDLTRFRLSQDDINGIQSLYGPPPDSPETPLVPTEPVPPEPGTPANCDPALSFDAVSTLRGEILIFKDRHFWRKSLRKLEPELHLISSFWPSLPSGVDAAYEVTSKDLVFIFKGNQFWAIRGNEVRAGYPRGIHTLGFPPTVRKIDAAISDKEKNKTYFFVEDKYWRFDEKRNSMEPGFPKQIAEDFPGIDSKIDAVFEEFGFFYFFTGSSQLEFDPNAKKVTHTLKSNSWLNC
Source text: as §1, §2

[6] = target: MMP-13h (Homo sapiens (Human), UniProt P45452); assay: Inhibition constant (Ki) on MMP-13h; conditions: human MMP-13
Source text: as §1, §2

[7] = target: MMP-8h (Homo sapiens (Human), UniProt P22894); assay: Inhibition constant (Ki) on MMP-8h; conditions: human MMP-8
Chain of MMP-8h (P22894 101-467): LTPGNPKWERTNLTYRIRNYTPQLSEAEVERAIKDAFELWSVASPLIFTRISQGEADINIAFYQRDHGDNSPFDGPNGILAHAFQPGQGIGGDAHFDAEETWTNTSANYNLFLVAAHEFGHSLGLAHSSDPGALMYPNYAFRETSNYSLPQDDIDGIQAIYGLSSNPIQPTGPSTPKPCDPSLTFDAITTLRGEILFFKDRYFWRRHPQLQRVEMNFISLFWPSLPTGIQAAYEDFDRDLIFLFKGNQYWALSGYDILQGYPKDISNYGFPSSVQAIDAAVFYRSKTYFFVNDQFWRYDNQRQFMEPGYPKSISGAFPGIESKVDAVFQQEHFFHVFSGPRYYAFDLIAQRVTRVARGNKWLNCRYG

[8] = target: MMP-9h (Homo sapiens (Human), UniProt P14780); assay: Inhibition constant (Ki) on MMP-9h; conditions: human MMP-9
Chain of MMP-9h (P14780 94-707): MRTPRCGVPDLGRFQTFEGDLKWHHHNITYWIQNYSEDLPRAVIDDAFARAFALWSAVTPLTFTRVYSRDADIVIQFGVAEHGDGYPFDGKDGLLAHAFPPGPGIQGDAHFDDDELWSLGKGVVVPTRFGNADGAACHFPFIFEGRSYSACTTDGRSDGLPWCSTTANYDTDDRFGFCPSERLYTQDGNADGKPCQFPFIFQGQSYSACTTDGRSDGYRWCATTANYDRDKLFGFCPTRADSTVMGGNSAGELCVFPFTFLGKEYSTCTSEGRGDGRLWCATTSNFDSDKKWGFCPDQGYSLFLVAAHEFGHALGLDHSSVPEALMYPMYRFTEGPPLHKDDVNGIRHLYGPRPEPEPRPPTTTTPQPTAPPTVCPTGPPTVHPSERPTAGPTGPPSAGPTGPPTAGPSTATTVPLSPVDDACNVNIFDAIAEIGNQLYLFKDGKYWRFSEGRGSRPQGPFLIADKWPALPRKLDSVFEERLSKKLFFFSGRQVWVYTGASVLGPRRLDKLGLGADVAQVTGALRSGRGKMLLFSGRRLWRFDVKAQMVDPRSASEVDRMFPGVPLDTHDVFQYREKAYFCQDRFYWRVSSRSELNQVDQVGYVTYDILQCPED
Source text: as §1, §2

Row | SMILES | Ki ([1]; read-out: Ki MMP-14h) | Ki ([2]; read-out: Ki MMP-10h) | Ki ([3]; read-out: Ki MMP-12h) | Ki ([4]; read-out: Ki MMP-2h) | Ki ([5]; read-out: Ki MMP-3h) | Ki ([6]; read-out: Ki MMP-13h) | Ki ([7]; read-out: Ki MMP-8h) | Ki ([8]; read-out: Ki MMP-9h) | Ki [1] | Ki [2] | Ki [3] | Ki [4] | Ki [5] | Ki [6] | Ki [7] | Ki [8]
1 | NC(=O)[C@H](CCC(=O)O)NC(=O)[C@H](CCC(=O)O)NC(=O)CCc1ccc(-c2cccc(O)c2)cc1 [Compound 54, (S)-5-amino-4-((S)-4-carboxy-2-(3-(3′-hydroxybiphenyl-4-yl)propanamido)butanamido)-5-oxopentanoic acid] | > 10 µM | > 1 µM | 0.176 µM | > 10 µM | > 10 µM | > 10 µM | > 1 µM | > 1 µM | – | – | – | – | – | – | – | –
2 | NC(=O)[C@H](CC(=O)O)NC(=O)[C@H](CCC(=O)O)NC(=O)CCc1cc(-c2ccc(-c3ccccc3)cc2)no1 [Compound 18, (S)-5-((S)-1-amino-3-carboxy-1-oxopropan-2-ylamino)-4-(3-(3-(biphenyl-4-yl)isoxazol-5-yl)propanamido)-5-oxopentanoic acid] | – | – | – | – | – | – | – | – | > 1 µM | 0.196 µM | 0.008 µM | 0.093 µM | 0.44 µM | 0.03 µM | 0.832 µM | > 1 µM
3 | CC(C)C[C@H](NC(=O)[C@H](CCC(=O)O)NC(=O)CCc1ccc(-c2ccc(-c3ccccc3)cc2)cc1)C(N)=O [Compound 69, (S)-5-((S)-1-amino-4-methyl-1-oxopentan-2-ylamino)-4-(3-(4′-phenylbiphenyl-4-yl)propanamido)-5-oxopentanoic acid] | > 5 µM | 0.382 µM | 0.0078 µM | 0.332 µM | 0.258 µM | 0.081 µM | 0.567 µM | > 1 µM | – | – | – | – | – | – | – | –
4 | NC(=O)[C@H](CCC(=O)O)NC(=O)[C@H](CCC(=O)O)NC(=O)CCc1ccc(-c2ncccn2)cc1 [Compound 32, (S)-5-amino-4-((S)-4-carboxy-2-(3-(4-(pyrimidin-2-yl)phenyl)propanamido)butanamido)-5-oxopentanoic acid] | > 1 µM | > 5 µM | 0.969 µM | > 5 µM | > 1 µM | 0.641 µM | > 1 µM | > 1 µM | – | – | – | – | – | – | – | –
5 | NC(=O)[C@H](CCC(=O)O)NC(=O)[C@H](CCC(=O)O)NC(=O)CCc1ccc(-c2nc3ccccc3s2)cc1 [Compound 39, (S)-5-amino-4-((S)-2-(3-(4-(benzo[d]thiazol-2-yl)phenyl)propanamido)-4-carboxybutanamido)-5-oxopentanoic acid] | – | – | – | – | – | – | – | – | 0.547 µM | 0.099 µM | 0.0022 µM | 0.151 µM | 0.088 µM | 0.134 µM | 0.146 µM | 0.618 µM
6 | NC(=O)[C@H](CCC(=O)O)NC(=O)[C@H](CCCC(=O)O)NC(=O)CCc1cc(-c2ccc(-c3cccc(Cl)c3)cc2)no1 [Compound 11, (S)-6-((S)-1-amino-4-carboxy-1-oxobutan-2-ylamino)-5-(3-(3-(3′-chlorobiphenyl-4-yl)isoxazol-5-yl)propanamido)-6-oxohexanoic acid] | – | – | – | – | – | – | – | – | > 10 µM | 0.556 µM | 0.254 µM | > 1 µM | 0.302 µM | 0.191 µM | > 1 µM | > 10 µM
7 | C[C@H](NC(=O)[C@H](CCC(=O)O)NC(=O)CCc1cc(-c2ccc(-c3ccccc3)cc2)no1)C(N)=O [Compound 23, (S)-5-((S)-1-amino-1-oxopropan-2-ylamino)-4-(3-(3-(biphenyl-4-yl)isoxazol-5-yl)propanamido)-5-oxopentanoic acid] | > 1 µM | 0.276 µM | 0.0112 µM | 0.078 µM | 0.46 µM | 0.08 µM | 0.351 µM | > 1 µM | – | – | – | – | – | – | – | –
8 | NC(=O)[C@H](CC(=O)O)NC(=O)[C@H](CCC(=O)O)NC(=O)CCc1cc(-c2ccc(-c3cccc(Cl)c3)cc2)no1 [Compound 8, (S)-5-((S)-1-amino-3-carboxy-1-oxopropan-2-ylamino)-4-(3-(3-(3′-chlorobiphenyl-4-yl)isoxazol-5-yl)propanamido)-5-oxopentanoic acid] | > 1 µM | 0.035 µM | 0.011 µM | 0.112 µM | 0.243 µM | 0.03 µM | 0.556 µM | > 1 µM | – | – | – | – | – | – | – | –
9 | NC(=O)CC[C@H](NC(=O)[C@H](CCC(N)=O)NC(=O)CCc1ccc(-c2ccccc2)cc1)C(N)=O [Compound 43, (S)-2-(3-(biphenyl-4-yl)propanamido)-N^1-((S)-1,5-diamino-1,5-dioxopentan-2-yl)pentanediamide] | > 5 µM | > 5 µM | 0.306 µM | 0.319 µM | > 1 µM | 0.259 µM | 0.657 µM | > 1 µM | – | – | – | – | – | – | – | –
10 | NC(=O)[C@H](CCC(=O)O)NC(=O)[C@H](CCC(=O)O)NC(=O)CCc1cc(-c2ccc(-c3ccccc3)cc2)no1 [Compound 16, (S)-5-amino-4-((S)-2-(3-(3-(biphenyl-4-yl)isoxazol-5-yl)propanamido)-4-carboxybutanamido)-5-oxopentanoic acid] | – | – | – | – | – | – | – | – | > 1 µM | 0.114 µM | 0.0034 µM | 0.083 µM | 0.078 µM | 0.06 µM | 0.383 µM | > 1 µM
11 | O=C(O)CC[C@H](NC(=O)CCc1ccc(-c2ccccc2)cc1)C(=O)N1CCC[C@@H](CC(=O)O)C1 [Compound 51, (S)-4-(3-(biphenyl-4-yl)propanamido)-5-((S)-3-(carboxymethyl)piperidin-1-yl)-5-oxopentanoic acid] | > 5 µM | > 10 µM | 0.259 µM | > 1 µM | > 10 µM | > 1 µM | 0.929 µM | > 1 µM | – | – | – | – | – | – | – | –
12 | NC(=O)[C@H](CCC(=O)O)NC(=O)[C@H](Cc1c[nH]cn1)NC(=O)CCc1ccc(-c2ccc(-c3ccccc3)cc2)cc1 [Compound 77, (S)-4-((S)-3-(1H-imidazol-4-yl)-2-(3-(4′-phenylbiphenyl-4-yl)propanamido)propanamido)-5-amino-5-oxopentanoic acid] | > 10 µM | > 5 µM | 0.234 µM | > 1 µM | > 1 µM | 0.377 µM | > 1 µM | > 50 µM | – | – | – | – | – | – | – | –
13 | NC(=O)[C@H](CCC(=O)O)NC(=O)[C@H](CCC(=O)O)NC(=O)CCc1ccc(COc2ccccc2)cc1 [Compound 29, (S)-5-amino-4-((S)-4-carboxy-2-(3-(4-(phenoxymethyl)phenyl)propanamido)butanamido)-5-oxopentanoic acid] | > 5 µM | > 1 µM | 0.469 µM | > 1 µM | > 10 µM | 0.117 µM | > 1 µM | > 1 µM | – | – | – | – | – | – | – | –
14 | NC(=O)[C@H](CCC(=O)O)NC(=O)CCc1cc(-c2ccccc2)no1 [Compound 15, (S)-5-amino-5-oxo-4-(3-(3-phenylisoxazol-5-yl)propanamido)pentanoic acid] | > 1 µM | > 5 µM | 0.398 µM | 0.762 µM | > 10 µM | > 1 µM | 0.114 µM | > 1 µM | – | – | – | – | – | – | – | –
15 | NC(=O)[C@H](CCC(=O)O)NC(=O)[C@H](CCC(=O)O)NC(=O)CCc1ccc(-c2cccc(C(=O)O)c2)cc1 [Compound 56, 4′-(3-((S)-1-((S)-1-amino-4-carboxy-1-oxobutan-2-ylamino)-4-carboxy-1-oxobutan-2-ylamino)-3-oxopropyl)biphenyl-3-carboxylic acid] | > 10 µM | > 10 µM | 0.091 µM | > 5 µM | > 10 µM | > 5 µM | > 1 µM | > 1 µM | – | – | – | – | – | – | – | –
16 | NC(=O)[C@H](CCC(=O)O)NC(=O)[C@@H](CCC(=O)O)NC(=O)CCc1cc(-c2ccc(-c3cccc(Cl)c3)cc2)no1 [Compound 6, (S)-5-amino-4-((R)-4-carboxy-2-(3-(3-(3′-chlorobiphenyl-4-yl)isoxazol-5-yl)propanamido)butanamido)-5-oxopentanoic acid] | > 10 µM | 0.489 µM | 0.401 µM | 0.403 µM | > 1 µM | 0.235 µM | > 5 µM | > 5 µM | – | – | – | – | – | – | – | –
17 | NC(=O)CC[C@H](NC(=O)CCc1ccc(-c2ccc(-c3ccccc3)cc2)cc1)C(=O)N[C@@H](CCC(=O)O)C(N)=O [Compound 72, (S)-5-amino-4-((S)-5-amino-2-(3-(4′-phenylbiphenyl-4-yl)propanamido)-5-oxopentanamido)-5-oxopentanoic acid] | – | – | – | – | – | – | – | – | > 5 µM | > 1 µM | 0.134 µM | 0.386 µM | 0.064 µM | 0.18 µM | > 1 µM | > 5 µM
18 | NC(=O)[C@H](CCC(=O)O)NC(=O)[C@H](CCC(=O)O)NC(=O)CCc1ccc(-c2nccs2)cc1 [Compound 37, (S)-5-amino-4-((S)-4-carboxy-2-(3-(4-(thiazol-2-yl)phenyl)propanamido)butanamido)-5-oxopentanoic acid] | – | – | – | – | – | – | – | – | > 1 µM | > 1 µM | 0.369 µM | 0.657 µM | > 5 µM | 0.24 µM | > 1 µM | > 1 µM
